Assay [1] has as its target T1, RAMP1-CLR (CGRP receptor) (Homo sapiens, UniProt O60894+Q16602).
T1 construct: FLAG; expressed in transfected cells; host or cells: HEK-293 or HEK-293S cells, transient transfection, 1:1 RAMP:CLR
As to the kind of experiment: S. cerevisiae growth assay, GPA1/Gαi chimera, RAMP1 + CLR. It is filed as cell-based. The following applies: percentage of yeast strain MMY11 (lacking GPA1); 20 h; mean ± S.E., n = 6. The protocol:
FIGURE 3. […] Reporter gene activity was determined following 20 h of stimulation.
General yeast procedures were performed as described previously ([22], [24]). The human CLR was introduced into yeast cells under the control of the PGK promoter using a plasmid containing ura3 (pDT-PGK). The three human RAMPs were introduced into yeast under the control of the GAPDH promoter using plasmids containing leu2 (p425-GPD) ([25]). S. cerevisiae dual reporter strains expressing chimeras of yeast GPA1(1–467) (GPA1/Gα) with the five C-terminal amino acids of […] human G proteins representing Gαs, Gα16, Gαq, Gαo, Gαi1/2, Gαi3, Gαz, Gα12, Gα13, and Gα14 (MMY84–MMY93) were used in this study ([52]). […] Receptor signaling was measured using the yeast growth assay as described previously ([24]). […] A fluorescein signal was detected as an increase in fluorescence (excitation wavelength = 485 nm, emission wavelength = 535 nm) as a measure of growth. Different concentrations of ligand (0.01 nM–100 μM) were assayed using 96-well plates, and fluorescence was detected using a Tecan Infinite M200 microplate reader (Tecan Ultra Evolution, Reading, UK) or a Mithras LB 940 microplate reader (Berthold Technologies, Harpenden, UK) for 20 h. […]

A further assay addresses T2, RAMP3-CLR (AM2 receptor) (Homo sapiens, UniProt O60896+Q16602).
T2 construct: FLAG; expressed in transfected cells; host or cells: HEK-293 or HEK-293S cells, transient transfection, 1:1 RAMP:CLR
As to the kind of experiment: (Ca^2+)i mobilization, HEK-293S cells, RAMP3 + CLR. Type of assay: cell-based. The note with it: HEK293S, percentage of maximal (Ca^2+)i release with 10 μM ionomycin, mean ± S.E., n = 5. The protocol: HEK-293 cells, provided by Dr. Jügen Müller (University of Aston), were cultured in DMEM supplemented with 10% heat-inactivated FBS and kept at 37 °C in a humidified 95% air, 5% CO2 incubator. HEK-293S cells (a gift from AstraZeneca) were cultured in DMEM supplemented with 8% heat-inactivated FBS and kept at 37 °C in a humidified 95% air, 5% CO2 incubator. HEK-293 cells were transfected with FuGENE 6 (Roche Applied Science) in accordance with the manufacturer's instructions using a 1:3 (w:v) DNA:FuGENE ratio and a 1:1 ratio of RAMP to CLR. HEK-293S cells were seeded into 96-well poly-D-lysine-coated plates at a density of 15,000 cells/well (determined using a Countess^TM cell counter, Invitrogen) 1 day prior to transfection. HEK-293S cells were transiently transfected as described previously ([38]) using a 1:1 ratio of RAMP to CLR. The transfected cell lines were grown for 24–48 h prior to assaying.
Transfected HEK-293 cells were grown to confluence in black, clear bottomed, 96-well plates. […] Ligands were added robotically using a Mithras LB 940 multimode microplate reader in the range of 10 pM to 1 μM, and fluorescence was determined immediately post-injection with an excitation wavelength set to 485 nm and an emission wavelength set to 535 nm. […] Peak magnitude was calculated using five-point smoothing followed by correction against background fluorescence. […]

T2 sequence (Q16602 23-461): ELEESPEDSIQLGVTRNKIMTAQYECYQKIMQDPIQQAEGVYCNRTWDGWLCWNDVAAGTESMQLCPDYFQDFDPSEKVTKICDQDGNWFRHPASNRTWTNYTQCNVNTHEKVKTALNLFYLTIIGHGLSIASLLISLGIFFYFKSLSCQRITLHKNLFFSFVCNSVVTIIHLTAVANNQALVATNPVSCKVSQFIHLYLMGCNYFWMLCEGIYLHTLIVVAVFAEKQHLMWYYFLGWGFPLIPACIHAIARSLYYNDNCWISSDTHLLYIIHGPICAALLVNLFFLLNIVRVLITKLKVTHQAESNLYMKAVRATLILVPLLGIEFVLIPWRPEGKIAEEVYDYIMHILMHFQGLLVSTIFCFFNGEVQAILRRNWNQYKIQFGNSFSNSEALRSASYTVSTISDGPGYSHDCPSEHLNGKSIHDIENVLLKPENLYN
T2 sequence (O60896 24-148): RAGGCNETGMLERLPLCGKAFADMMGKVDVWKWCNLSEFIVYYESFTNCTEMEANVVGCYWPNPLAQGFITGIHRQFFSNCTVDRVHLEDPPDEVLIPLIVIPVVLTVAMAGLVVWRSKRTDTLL
T1 sequence (Q16602 23-461): as the sequence (Q16602 23-461) above
T1 sequence (O60894 27-148): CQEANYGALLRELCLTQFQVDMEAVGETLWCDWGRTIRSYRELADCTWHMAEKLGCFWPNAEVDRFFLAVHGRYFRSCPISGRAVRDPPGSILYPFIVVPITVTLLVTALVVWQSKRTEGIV

On to `CSCC[C@H](NC(=O)[C@H](CC(C)C)NC(=O)[C@H](CCC(N)=O)NC(=O)[C@H](Cc1c[nH]c2ccccc12)NC(=O)[C@H](CC(C)C)NC(=O)[C@H](CCCNC(=N)N)NC(=O)[C@H](Cc1c[nH]cn1)NC(=O)[C@H](CO)NC(=O)[C@H](CC(C)C)NC(=O)[C@H](CC(N)=O)NC(=O)[C@H](CCC(N)=O)NC(=O)[C@@H](NC(=O)[C@H](CCC(N)=O)NC(=O)[C@@H]1CSSC[C@H](NC(=O)CNC(=O)[C@@H](NC(=O)[C@H](CCCNC(=N)N)NC(=O)[C@H](CC(C)C)NC(=O)[C@H](CC(C)C)NC(=O)[C@H](CCC(N)=O)NC(=O)[C@H](C)NC(=O)[C@H](CCC(N)=O)NC(=O)[C@@H](N)[C@@H](C)O)C(C)C)C(=O)N[C@@H](C(C)C)C(=O)N[C@@H](CC(C)C)C(=O)NCC(=O)N[C@@H]([C@@H](C)O)C(=O)N1)C(C)C)C(=O)NCC(=O)N1CCC[C@H]1C(=O)N[C@@H](C)C(=O)NCC(=O)N[C@@H](CCCNC(=N)N)C(=O)N[C@@H](CCC(N)=O)C(=O)N[C@@H](CC(=O)O)C(=O)N[C@@H](CO)C(=O)N[C@@H](C)C(=O)N1CCC[C@H]1C(=O)N[C@H](C(=O)N[C@@H](CC(=O)O)C(=O)N1CCC[C@H]1C(=O)N[C@@H](CO)C(=O)N[C@@H](CO)C(=O)N1CCC[C@H]1C(=O)N[C@@H](Cc1c[nH]cn1)C(=O)N[C@@H](CO)C(=O)N[C@@H](Cc1ccc(O)cc1)C(N)=O)C(C)C` [AM2, adrenomedullin 2], for which the figures for the Emax (in assay [1]; at RAMP3-CLR (AM2 receptor)) were 41.5 ± 3.3% and 20.1 ± 4.3%, respectively.
As for `CC[C@H](C)[C@H](NC(=O)[C@H](CCC(N)=O)NC(=O)[C@H](Cc1c[nH]cn1)NC(=O)[C@H](C)NC(=O)[C@H](CC(C)C)NC(=O)[C@H](CCCCN)NC(=O)[C@H](CCC(N)=O)NC(=O)[C@@H](NC(=O)[C@@H](NC(=O)[C@@H]1CSSC[C@H](NC(=O)CNC(=O)[C@H](Cc2ccccc2)NC(=O)[C@H](CO)NC(=O)[C@H](CCCNC(=N)N)NC(=O)[C@H](CC(C)C)NC(=O)CNC(=O)[C@H](CCC(N)=O)NC(=O)[C@H](Cc2ccccc2)NC(=O)[C@H](CC(N)=O)NC(=O)[C@H](CC(N)=O)NC(=O)[C@H](CCSC)NC(=O)[C@H](CO)NC(=O)[C@H](CCC(N)=O)NC(=O)[C@H](CCCNC(=N)N)NC(=O)[C@@H](N)Cc2ccc(O)cc2)C(=O)N[C@@H](CCCNC(=N)N)C(=O)N[C@@H](Cc2ccccc2)C(=O)NCC(=O)N[C@@H]([C@@H](C)O)C(=O)N1)[C@@H](C)O)C(C)C)C(=O)N[C@@H](Cc1ccc(O)cc1)C(=O)N[C@@H](CCC(N)=O)C(=O)N[C@@H](Cc1ccccc1)C(=O)N[C@H](C(=O)N[C@@H](CC(=O)O)C(=O)N[C@@H](CCCCN)C(=O)N[C@@H](CC(=O)O)C(=O)N[C@@H](CCCCN)C(=O)N[C@@H](CC(=O)O)C(=O)N[C@@H](CC(N)=O)C(=O)N[C@H](C(=O)N[C@@H](C)C(=O)N1CCC[C@H]1C(=O)N[C@@H](CCCNC(=N)N)C(=O)N[C@@H](CO)C(=O)N[C@@H](CCCCN)C(=O)N[C@H](C(=O)N[C@@H](CO)C(=O)N1CCC[C@H]1C(=O)N[C@@H](CCC(N)=O)C(=O)NCC(=O)N[C@@H](Cc1ccc(O)cc1)C(N)=O)[C@@H](C)CC)C(C)C)[C@@H](C)O` [AM, adrenomedullin], the Emax was 34.2 ± 3.7% in assay [1] and 44.3 ± 3.2% at RAMP3-CLR (AM2 receptor).

The values above are taken from paper PMC5063977 (The Journal of Biological Chemistry, 2016).
